In US20080249081A1, “COMPOUNDS FOR THE TREATMENT OF PAIN AND SCREENING METHODS THEREFOR” (priority 2006, published 2008):

How the values were obtained:
human MrgX1 receptor [1] = molecular target: T1, human MrgX1 receptor (Homo sapiens, UniProt Q96LB2); experiment: Intracellular calcium mobilization (Fura-2) in transfected cells; type: cell-based; parameters: expressed in transfected cells; settings: for MrgX1 pEC50: human MrgX1; for MrgX1 Eff %: normalized to response to BAM22 (100%)
Method: 1. CHO-K1 cells transfected with human MrgX1, simian MrgX1, human MrgX2 and simian MrgX2 receptors or a control receptor at a density 1-3×10^6 cells/mL were washed with phosphate-buffered saline.
2. Cells were loaded with 2 μM Fura-2 and analyzed with respect to the rise in intracellular calcium in the presence or absence of varying concentration of test compound.
3. The response was compared to that elicited by the application of the standard reference ligands BAM22 or Cortistatin-14 at 100 nM.
4. Intracellular free calcium concentrations were calculated using the formula:
[formula] • where Kd for Fura-2 is 224 nM, Fmax is the fluorescence in the presence of 0.04% Triton-X100 and Fmin is the fluorescence obtained after the addition of 5 mM EGTA in 30 mM Tris-HCl, pH7.4.

simian MrgX2 receptor = molecular target: T2, simian MrgX2 receptor (Macaca mulatta, UniProt Q4QXU5); experiment: Receptor Selection and Amplification Technology (R-SAT) functional assay, transfected NIH3T3 cells; type: cell-based, rhesus monkey; settings: for Monkey-MrgX2 Eff(%): percent maximal activation relative to STIA
T2 construct: expressed in transfected cells; host or cells: NIH3T3
T2 sequence (Q4QXU5 whole entry): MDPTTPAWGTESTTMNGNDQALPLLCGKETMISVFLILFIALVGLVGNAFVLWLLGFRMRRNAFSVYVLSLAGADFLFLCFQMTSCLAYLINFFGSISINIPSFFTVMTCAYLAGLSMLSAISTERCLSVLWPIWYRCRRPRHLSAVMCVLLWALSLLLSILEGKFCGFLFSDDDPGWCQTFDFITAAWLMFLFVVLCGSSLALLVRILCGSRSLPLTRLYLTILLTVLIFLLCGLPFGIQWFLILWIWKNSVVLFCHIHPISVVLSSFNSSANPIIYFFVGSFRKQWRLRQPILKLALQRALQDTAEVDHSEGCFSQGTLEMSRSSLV
Method: (§1) The functional receptor assay, Receptor Selection and Amplification Technology (R-SAT), was used to investigate the pharmacological properties of test compounds on MRGX1 or MRGX2 receptors. R-SAT is disclosed in U.S. Pat. Nos. 5,707,798, 5,912,132, and 5,955,281, each of which is incorporated by reference herein in its entirety, including any drawings.
(§2) Briefly, NIH3T3 cells were grown in 96-well tissue culture plates to 70-80% confluence. Cells were transfected for 16-20 h with plasmid DNAs using Polyfect (Qiagen Inc.) and the manufacturer's protocols. R-SATs were generally performed with 4 ng/well of receptor and 20 ng/well of β-galactosidase plasmid DNA. The human MrgX1, simian MrgX1, human MrgX2 and simian MrgX2 receptor genes were amplified by PCR from genomic DNA using oligodeoxynucleotide primers as described in U.S. patent application Ser. No. 11/359,209, which is incorporated by reference herein in its entirety, including any drawings. For large-scale transfections, cells were transfected for 16-20 h, then trypsinized and frozen in DMSO. Frozen cells were later thawed, plated at ˜10,000 cells per well of a 96 half-area well plate that contained test compound. With both methods, cells were then grown in a humidified atmosphere with 5% ambient CO2 for five days. The medium was then removed from the plates and marker gene activity was measured by the addition of the β-galactosidase substrate o-nitrophenyl β-D-galactopyranoside (ONPG, in PBS with 0.5% NP-40). The resulting […] reaction was measured in a spectrophotometric plate reader (Titertek Inc.) at 420 nm. All data were analyzed using the computer program XLFit (IDBSm). Efficacy is defined as the percent maximal activation compared to activation by a control compound (BAM22 in the case of human or simian MRGX1, STIA or Cortistatin-14 in the case of human or simian MRGX2). pEC50 is the negative of log(EC50), where EC50 is the calculated molar concentration of test compound that produces 50% of maximum activation.
(§3) Efficacy is reported relative to the ligands Bam22 for MrgX1 and STIA for MrgX2.

simian MrgX1 receptor = simian MrgX1 receptor (Macaca mulatta, UniProt A0A5F7ZSN8); experiment: as above; type: cell-based, rhesus monkey; settings: percent maximal activation relative to Bam22, read-out: Monkey-MrgX1 Eff(%)
Sequence of simian MrgX1 receptor (A0A5F7ZSN8 1-322): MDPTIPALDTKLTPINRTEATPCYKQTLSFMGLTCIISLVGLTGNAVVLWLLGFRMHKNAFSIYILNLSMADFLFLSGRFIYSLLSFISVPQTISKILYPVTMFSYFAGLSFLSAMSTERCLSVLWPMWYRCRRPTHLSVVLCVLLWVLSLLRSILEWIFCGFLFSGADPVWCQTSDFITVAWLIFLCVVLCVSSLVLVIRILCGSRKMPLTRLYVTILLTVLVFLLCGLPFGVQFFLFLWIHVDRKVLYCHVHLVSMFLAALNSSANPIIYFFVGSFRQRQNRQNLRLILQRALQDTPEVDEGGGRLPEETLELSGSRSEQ
Method: as §1, §2, §3

human MrgX2 receptor = molecular target: T3, human MrgX2 receptor (Homo sapiens, UniProt Q96LB1); experiment: as above; type: cell-based; settings: for Human-MrgX2 Eff(%): percent maximal activation relative to STIA
T3 construct: expressed in transfected cells; host or cells: NIH3T3
T3 sequence (Q96LB1 1-330): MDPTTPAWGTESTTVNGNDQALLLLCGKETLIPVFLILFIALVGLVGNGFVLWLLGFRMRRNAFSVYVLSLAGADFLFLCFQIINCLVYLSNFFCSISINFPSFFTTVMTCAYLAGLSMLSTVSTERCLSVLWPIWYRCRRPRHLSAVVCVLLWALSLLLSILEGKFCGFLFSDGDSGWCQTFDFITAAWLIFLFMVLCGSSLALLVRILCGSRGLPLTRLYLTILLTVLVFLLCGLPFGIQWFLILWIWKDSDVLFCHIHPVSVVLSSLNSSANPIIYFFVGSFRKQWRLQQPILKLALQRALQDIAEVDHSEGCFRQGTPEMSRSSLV
Method: as §1, §2, §3

human MrgX1 receptor [2] = molecular target: T1, human MrgX1 receptor; experiment: as above; type: cell-based; parameters: expressed in transfected cells; host or cells: NIH3T3; settings: for EC50 / Human-MrgX1 pEC50: pEC50 = negative log of molar EC50; for Human-MrgX1 Eff(%): percent maximal activation relative to Bam22
Method: as §1, §2, §3

T1 sequence (Q96LB2 whole entry): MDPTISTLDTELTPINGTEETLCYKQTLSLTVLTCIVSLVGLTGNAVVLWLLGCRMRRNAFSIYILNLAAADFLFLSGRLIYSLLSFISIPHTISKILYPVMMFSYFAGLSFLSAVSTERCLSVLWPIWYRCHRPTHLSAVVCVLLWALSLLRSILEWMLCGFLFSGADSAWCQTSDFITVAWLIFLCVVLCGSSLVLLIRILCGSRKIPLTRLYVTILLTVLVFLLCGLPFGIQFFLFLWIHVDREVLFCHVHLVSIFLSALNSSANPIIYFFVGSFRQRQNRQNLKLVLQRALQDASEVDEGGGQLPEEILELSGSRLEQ

| Structure (SMILES) | MrgX1 pEC50 (human MrgX1 receptor [1]) | MrgX1 Eff % (human MrgX1 receptor [1]) | Monkey-MrgX2 pEC50 (simian MrgX2 receptor) | Monkey-MrgX2 Eff(%) (simian MrgX2 receptor) | Emax (simian MrgX1 receptor) | Human-MrgX2 pEC50 (human MrgX2 receptor) | Human-MrgX2 Eff(%) (human MrgX2 receptor) | EC50 (human MrgX1 receptor [2]) | Human-MrgX1 Eff(%) (human MrgX1 receptor [2]) | Human-MrgX1 pEC50 (human MrgX1 receptor [2]) |
| --- | --- | --- | --- | --- | --- | --- | --- | --- | --- | --- |
| N=C(N)NCCC[C@@H](C(N)=O)n1c(-c2cccc(Oc3ccccc3)c2)nc2cc(C(=O)N3CCN(c4ccc(F)cc4)CC3)ccc21 [Compound 1, (α^1R)-α-[3-[(aminoiminomethyl)amino]propyl]-5-[[4-(4-fluorophenyl)-1-piperazinyl]carbonyl]-2-(3-phenoxyphenyl)-1H-benzimidazole-1-acetamide] | 6.6 | 88% | <4.5 | 25% | 148% | nr | −1% | 1000 nM | 146% |  |
| Cc1cccc(N2CCN(C(=O)c3ccc4c(c3)nc(-c3cccc(Oc5ccccc5)c3)n4[C@@H](CCCNC(=N)N)C(N)=O)CC2C)c1 (stereo partly drawn) [Compound 2, (α^1R)-α-[3-[(aminoiminomethyl)amino]propyl]-5-[[3-methyl-4-(3-methylphenyl)-1-piperazinyl]carbonyl]-2-(3-phenoxyphenyl)-1H-benzimidazole-1-acetamide] | 7.6 | 92% |  | 22% | 316% | nr | 17% | 631 nM | 220% |  |
| N=C(N)NCCC[C@@H](C(N)=O)n1c(-c2cccc(Oc3ccccc3)c2)nc2cc(C(=O)NCCc3ccccn3)ccc21 [Compound 3, (α^1R)-α-[3-[(aminoiminomethyl)amino]propyl]-2-(3-phenoxyphenyl)-5-[[[2-(2-pyridinyl)ethyl]amino]carbonyl]-1H-benzimidazole-1-acetamide] | 6.4 | 106% |  | 4% | 160% | nr | 4% | 158 nM | 176% |  |
| CN(CCc1ccccn1)C(=O)c1ccc2c(c1)nc(-c1cccc(Oc3ccccc3)c1)n2[C@@H](CCCNC(=N)N)C(N)=O [Compound 4, (α^1R)-α-[3-[(aminoiminomethyl)amino]propyl]-5-[[methyl[2-(2-pyridinyl)ethyl]amino]carbonyl]-2-(3-phenoxyphenyl)-1H-benzimidazole-1-acetamide] | 6.7 | 112% |  | 18% | 107% | nr | 46% | 1000 nM | 325% |  |
| COc1ccc(NC(=O)c2ccc3c(c2)nc(-c2cccc(Oc4ccccc4)c2)n3C(CCCNC(=N)N)C(N)=O)cc1 (stereo not drawn) [Compound 27] |  |  |  |  |  | nr | 4% |  | 133% | 6.1 |
| CCCCNC(=O)c1ccc2c(c1)nc(-c1cccc(Oc3ccccc3)c1)n2C(CCCNC(=N)N)C(N)=O (stereo not drawn) [Compound 30] |  |  |  |  |  | nr | 11% |  | 150% | 6.2 |
| N=C(N)NCCCC(C(N)=O)n1c(-c2cccc(Oc3ccccc3)c2)nc2cc(C(=O)Nc3nccs3)ccc21 (stereo not drawn) [Compound 31] |  |  |  |  |  | nr | 6% |  | 73% | 5.6 |
